Earlier results on one substance are cited in publication PMC7357848 (Journal of Chemical Information and Modeling, 2020).

The test system of this data set is hERG. As to conditions: IC50 with SP over IC50 with Protocol-O; ref 5 (Yao et al. 2005).

As to BeKm-1, the IC50 ratio is on record as 10.3.
